This is an account of results in PubChem BioAssay AID1417 (Emory University Molecular Libraries Screening Center, 2008).

Broadly, the IC50 is the concentration that gives 50% inhibition. Read a low IC50 as greater potency in that assay.

The assay deals with Induced myeloid leukemia cell differentiation protein Mcl-1 (Homo sapiens) (UniProt Q07820). The assay can be described thus: Mcl-1/Noxa binding inhibitor potency, dose response, biochemical, TR-FRET (AID 1417). The conditions noted are these: Mcl-1/Noxa peptide interaction, cell-free TR-FRET (terbium/rhodamine), 2 h; measured here: absolute IC50. (Time-resolved FRET reads energy transfer from a long-lived donor to a nearby acceptor.)
Induced myeloid leukemia cell differentiation protein Mcl-1 (Homo sapiens), sequence (Q07820 whole entry, looked up): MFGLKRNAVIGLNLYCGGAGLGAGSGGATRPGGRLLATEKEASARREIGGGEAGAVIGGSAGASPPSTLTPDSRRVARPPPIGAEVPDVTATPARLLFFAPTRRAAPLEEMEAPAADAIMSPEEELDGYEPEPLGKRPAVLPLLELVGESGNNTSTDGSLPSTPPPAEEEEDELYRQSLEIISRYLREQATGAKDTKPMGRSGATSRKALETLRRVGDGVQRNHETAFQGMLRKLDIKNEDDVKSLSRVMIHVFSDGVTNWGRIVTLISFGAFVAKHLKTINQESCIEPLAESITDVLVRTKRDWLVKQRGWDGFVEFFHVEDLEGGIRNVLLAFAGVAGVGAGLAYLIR
For the molecule `O=C(O)CSc1cc(NS(=O)(=O)c2cccc([N+](=O)[O-])c2)c2ccccc2c1O`, the IC50 was less than 400 nM. To `CN1CCN(S(=O)(=O)c2ccc(NC(=S)NC(=O)c3ccc(Cl)cc3)cc2)CC1` belongs 3590 nM; to `O=C1NC(=O)/C(=C\c2ccc(O)cc2O)S1`, less than 400 nM; to `C=C(C)C(=O)Nc1cccc(C2=NOC3(C2)C[C@@H](C(N)=O)N(C(=O)c2ccc(Cl)cc2)C3)c1` (stereo not given in full), less than 400 nM. To `Cc1ccc(C(=O)OCC(=O)Nc2ccc(N(C)C)cc2)cc1NC(=O)c1ccco1` belongs more than 54000 nM; to `CCN(/N=C/c1ccc(N(C)C)cc1)c1nc2ccccc2[nH]1`, 2060 nM; to `COc1ccc(C(=O)N2c3ccccc3CC2C)cc1OC` (stereo not given), more than 54000 nM. To `Cc1ccc(/C=C2\SC(=S)N(/N=C/c3cc([N+](=O)[O-])ccc3O)C2=O)o1` belongs less than 400 nM; to `O=C(O)c1cccc2c1NC(C(=O)O)C1CC(Sc3ccccc3[N+](=O)[O-])C(Cl)C21` (stereo not given), 881 nM; to `CC[C@H](C)NC(=O)c1ccc(Cn2c(=S)[nH]c3c([nH]c4ccc(OC)cc43)c2=O)cc1`, 6170 nM. On to `CCOC(=O)C1CCN(c2nc(N)c3c(N)nc(SCC(=O)O)cc3c2C#N)CC1`, for which the IC50 was less than 400 nM. To `COc1ccc(-c2csc(NC(=S)NC(=O)c3cccs3)n2)cc1OC` belongs 3310 nM.

As for `Cc1nc2ccc(NC(=O)c3cc([N+](=O)[O-])cc([N+](=O)[O-])c3Cl)cc2s1`, the IC50 was 1300 nM. Regarding `CCC(C)N1C(=O)/C(=C/c2ccc3c(c2)CCN3CCCCl)C(=O)NC1=S` (stereo not given), the IC50 worked out at 1920 nM. To `O=S(=O)(c1ccc2nc(-c3ccco3)c(-c3ccco3)nc2c1)N1CCOCC1` belongs 8410 nM; to `O=[N+]([O-])c1ccc(O)c(/C=N/Nc2ccc(Cl)nn2)c1`, 16700 nM; to `O=C(N/N=C\C=C\c1ccco1)c1cc(-c2ccc3ccccc3c2)n[nH]1`, 2110 nM. To `COc1cc2c(cc1O)C[C@H]1NCCc3cc4c(c-2c31)OCO4` belongs 5200 nM. In the case of `Cc1nnc(NC(=O)c2sc3nc(-c4cccs4)cc(C(F)(F)F)c3c2N)s1` it was 1600 nM.

For `CCOC(=O)c1c(-c2ccc(C)cc2)csc1NC(=O)/C(C#N)=C/c1ccc(O)c(OC)c1`, the IC50 is less than 400 nM. In the case of `c1ccc(-c2ccc(-c3n(-c4ccccn4)c4ccccc4[n+]3-c3ccccn3)cc2)cc1` it was 34600 nM; in that of `O=C(O)CCn1cc(C=C2C(=O)NC(=S)NC2=O)c(-c2cccc(Cl)c2)n1`, 1810 nM; in that of `O=C(Nc1ccc([N+](=O)[O-])cc1)Nc1ccc(N2CCOCC2)c2nonc12`, 4630 nM. To `Oc1ccc(/C=N/Nc2ccnc3cc(Cl)ccc23)cc1O` belongs 1990 nM; to `Cn1cnnc1SCC(=O)Nc1sc2c(c1C(N)=O)CCC2`, 1810 nM; to `C/C(=N/NC(=O)c1cc2ccccc2cc1O)C1C(=O)c2ccccc2C1=O`, 919 nM.

Molecule `CC1CC(=O)c2c(cc3c(-c4c(O)cc(O)c5c(O)c6c(cc45)OC(C)CC6=O)c(O)cc(O)c3c2O)O1` (stereo not given) showed an IC50 of less than 400 nM. `Cc1ccc(-c2cc(C(=O)OCC(=O)N(C)C3CCS(=O)(=O)C3)c3ccccc3n2)o1` (stereo not given) showed an IC50 of 2980 nM. In the case of `Cc1cc(C)c(S(=O)(=O)NCc2cn3c(C)csc3n2)cc1C` it was more than 54000 nM; in that of `Oc1nc(Nc2ccc(F)cc2)sc1/C=C1\C=Nc2ccccc21`, 4320 nM; in that of `O=c1cc(-c2ccc([N+](=O)[O-])cc2)nc2cc(-c3ccc(Cl)cc3)[nH]n12`, 1630 nM. Turning to `O=C(Cn1nc(C(=O)O)c2ccccc2c1=O)Nc1ccc2c(c1)C(=O)c1ccccc1C2=O`, the IC50 was determined as 4620 nM.

`CCc1n[nH]c(=S)n1/N=C/c1cc(OC)cc([N+](=O)[O-])c1O` showed an IC50 of less than 400 nM.

`Cc1sc(NC(=O)c2cc(-c3ccc(Cl)cc3)nc3ccccc23)c(C(N)=O)c1C` yielded an IC50 of 18200 nM. To `O=C(O)C[C@@H]1C(=O)O[C@@H]2C(COC(=O)c3cc(O)c(O)c(O)c3)O[C@@H](OC(=O)c3cc(O)c(O)c(O)c3)[C@@H](OC(=O)c3cc(O)c(O)c4c3[C@H]1[C@H](O)C(=O)O4)[C@H]2OC(=O)c1cc(O)c(O)c(O)c1` (stereo not given in full) belongs less than 400 nM.

In turn, `C/C(=C\c1ccco1)C1Nc2cccc3cccc(c23)N1` displayed an IC50 of 3680 nM. In the case of `CCn1nc([N+](=O)[O-])c(C(C#N)c2nc3cc(C(F)(F)F)ccc3s2)c(Cl)c1=O` (stereo not given) it was 3150 nM. In the case of `Cc1ccc(N2C(=O)NC(=O)/C(=C\c3cnc(-c4ccccc4)nc3)C2=O)cc1` it was 20200 nM; in that of `Cc1sc(NC(=O)c2sc3nc4c(C)cccc4cc3c2N)c(C#N)c1C`, less than 400 nM; in that of `Cc1ccc(/C=C2\SC(=S)N(Cc3ccccc3)C2=O)o1`, more than 54000 nM. In the case of `Oc1cccc2cc3cccc(O)c3c(O)c12` it was 1960 nM; in that of `O=C(Nc1nc2ccccc2[nH]1)c1ccc(Cl)c([N+](=O)[O-])c1`, 8740 nM; in that of `Oc1c(/C=N/c2ccccn2)sc2ccccc12`, less than 400 nM. `COc1ccc2c3c(cccc13)N(C)N=C2C` gave an IC50 of 931 nM. To `COc1ccc2nc(-n3c(O)c(C4=c5ccccc5=NC4=O)[nH]c3=S)sc2c1` belongs less than 400 nM. In turn, `Cc1cc(C)c(S(=O)(=O)/N=C2/C=C(Sc3ncn[nH]3)C(=O)c3ccccc32)cc1C` yielded an IC50 of less than 400 nM. To `O=C(Nc1nccs1)c1cccc(N2C(=O)c3cccc4c([N+](=O)[O-])ccc(c34)C2=O)c1` belongs more than 54000 nM; to `N#C/C(=C(/O)c1ccc(-c2cccc([N+](=O)[O-])c2)o1)c1nc2ccccc2s1`, 5710 nM. In the case of `CCOC(=O)C1CCN(C(=O)Nc2ccc3nc(-c4ccco4)c(-c4ccco4)nc3c2)CC1` it was 932 nM; in that of `CN1c2ccccc2N(C)C1(C)c1ccccc1`, 1120 nM. `Cc1c(Cc2ccccc2)c(NCCN(C)C)n2c(nc3ccccc32)c1C#N` registered an IC50 of 1910 nM. Take `CC(=O)c1cc(C#N)c(SCc2ccccn2)nc1C`: the IC50 was more than 54000 nM.

As to `CCN(CC)c1ccc(NC(=O)c2ccccc2OCC(=O)OC)cc1`, the IC50 is more than 54000 nM. To `CC1=Nc2cccc3cccc(c23)N1` belongs 2630 nM; to `O=c1c2c3c(sc2[nH]c(=S)n1Cc1ccco1)CCC3`, 1420 nM. To `O=C(N=Nc1c(O)n(Cc2ccccc2)c2ccccc12)c1cc2ccccc2cc1O` belongs 4760 nM; to `CCOC(=O)C1CCCN(c2ccc(NC(=O)c3snc4c(=O)[nH]c(C)nc34)cc2)C1` (stereo not given), 6540 nM; to `CN(C)c1ccc(CC(=O)c2nc3ccccc3s2)cc1`, 3190 nM. `COc1ccc2nc(-c3ccco3)c(-c3ccco3)nc2c1`: the IC50 was found to be 2250 nM. Consider `COc1ccccc1NC(=O)c1cc2cc(Br)ccc2cc1O`, for which the IC50 amounted to 2110 nM. In the case of `CN(C)c1ccc(NC(=O)c2ccc([N+](=O)[O-])cc2Cl)cc1` it was more than 54000 nM; in that of `COc1ccc(N2Cc3cccc(C(=O)N4CCN(C(=O)c5ccco5)CC4)c3C2=O)cc1`, 1770 nM; in that of `C=CCOC(=O)C1=C(C)N=c2s/c(=C3\C(=O)N(CC(=O)O)c4ccccc43)c(=O)n2C1c1ccc(OC)cc1` (stereo not given), 3480 nM. To `Cc1cc2ncn(/N=C/c3ccc([N+](=O)[O-])s3)c2cc1C` belongs 5320 nM; to `O=C(O)CCn1cc(C=C2C(=O)NC(=S)NC2=O)c(-c2cccc(Br)c2)n1`, 2180 nM; to `CC1=NN(C(N)=S)C(=O)C1N=Nc1ccc(O)cc1` (stereo not given), 11200 nM. In the case of `O=C(COC(=O)Cn1cnc2ccccc21)Nc1ccc2c(c1)C(=O)c1ccccc1C2=O` it was 2590 nM.

In turn, `COc1cc(/C=C/C(=O)OCC(=O)Nc2cc(C)c(C)cc2[N+](=O)[O-])ccc1O` had an IC50 of 2400 nM. The molecule `CN1C(=O)/C(=C2\SC(=S)N(CCCCCC(=O)O)C2=O)c2ccccc21` displayed an IC50 of 2850 nM. In the case of `CC1CCCCC12NC(=O)N(CC(=O)Nc1sc3c(c1C(N)=O)CCC3)C2=O` (stereo not given) it was 3970 nM; in that of `O=C(Nc1ccccc1)c1ccc2nc(-c3ccco3)c(-c3ccco3)nc2c1`, 3830 nM.

In turn, `COc1ccc(C2=NN(c3nc(-c4ccccc4)c(CC(=O)O)s3)C(c3ccco3)C2)cc1` (stereo not given) had an IC50 of 11900 nM. In the case of `COc1ccc(-c2csc(Nc3ccccc3)n2)cc1` it was more than 54000 nM. To `O=C1NC(=S)NC(=O)C1=Cc1ccc2c(c1)CCN2CCCCl` belongs less than 400 nM; to `Nc1c(C(=O)NC2CC2)sc2nc3c(c(-c4ccco4)c12)CC/C3=C/c1ccco1`, less than 400 nM; to `O=C(N/N=C/c1ccc(O)c(O)c1O)/C(=C/c1ccc([N+](=O)[O-])cc1)NC(=O)c1ccccc1`, less than 400 nM. `COC(=O)N/N=C/c1cc(N=Nc2ccccc2Cl)ccc1O` came in with an IC50 of 3740 nM.

In the case of `O=C(N=Nc1c(O)[nH]c2ccc([N+](=O)[O-])cc12)c1cc(-c2ccccc2Cl)nc2ccccc12`, the IC50 is less than 400 nM. In the case of `COC(=O)c1ccc2nc(Nc3nc4ccc(F)cc4s3)sc2c1` it was 1750 nM; in that of `CCOc1c(Cl)cc(CNc2ccc(N3CCCC3)cc2)cc1OC`, 1580 nM. In the case of `COc1ccc2[nH]c3c4c(ccc3c2c1)C(=O)C=CC4=O` it was less than 400 nM; in that of `Cn1c(SCC(=O)Nc2ccc3nc(SCC(=O)N4CCCC4)sc3c2)nnc1-c1ccc(N)cc1`, 688 nM; in that of `COc1ccc(C(=O)O)cc1NC(=S)NC(=O)c1ccc(-c2ccc(Cl)cc2)o1`, more than 54000 nM. To `COc1ccc(OC)c(/C=N/c2oc(-c3ccco3)c(-c3ccco3)c2C#N)c1` belongs 9720 nM; to `COc1ccc(/C=N/NC(=O)c2cc(O)c(O)c(O)c2)cc1Cn1cc([N+](=O)[O-])cn1`, less than 400 nM; to `O=C(Nc1cccc(S(=O)(=O)NC2=NCCCCC2)c1)c1cc(-c2ccco2)nc2ccccc12`, less than 400 nM. Molecule `CCOC(=O)c1c(NC(=O)N/N=C/c2ccc(O)c(OC)c2)sc(C(C)=O)c1C` had an IC50 of 1590 nM. The molecule `CCN(c1ccc(NC(=O)COC(=O)c2cc3ccccc3oc2=O)cc1)C(C)C` came in with a 50% inhibitory concentration (IC50) of more than 54000 nM.

Molecule `CN(C)c1ccc(NC(=O)CN2C(=O)CN=C(c3ccccc3)c3cc(Cl)ccc32)cc1` showed an IC50 of more than 54000 nM. `Cc1ccc([N+](=O)[O-])cc1N=Nc1c(-c2ccc([N+](=O)[O-])cc2)[nH]n(C(N)=S)c1=O` had an IC50 of less than 400 nM.
